Laboratory results as given in paper PMC9739877, “Discovery and Mechanistic Investigation of Piperazinone Phenylalanine Derivatives with Terminal Indole or Benzene Ring as Novel HIV-1 Capsid Modulators” (Molecules, 2022).

Columns and labels:
HIV-1 (IIIB) = assay: microbe, parasite or virus in culture; assay type: cell-based; conditions: Human immunodeficiency virus 1, MT4, 50% protection against HIV-induced cytotoxicity, MT-4 cells, MTT
Description: (§1) II. In vitro anti-HIV Assay in MT-4 Cells
(§2) Evaluation of the antiviral activity of the compounds against HIV in MT-4 cells was performed using the MTT assay as described below. Stock solutions (10 × final concentration) of test compounds were added in 25 µL volumes to two series of triplicate wells to allow simultaneous evaluation of their effects on mock- and HIV-infected cells at the beginning of each experiment. Serial 5-fold dilutions of test compounds were made directly in flat-bottomed 96-well microtiter trays using a Biomek 3000 robot (Beckman Instruments, Fullerton, CA). Untreated HIV- and mock-infected cell samples were included as controls. HIV stock (50 µL) at 100-300 CCID50 (50 % cell culture infectious doses) or culture medium was added to either the infected or mock-infected wells of the microtiter tray. Mock-infected cells were used to evaluate the effects of the test compound on uninfected cells to assess the test compounds' cytotoxicity. Exponentially growing MT-4 cells were centrifuged for 5 minutes at 220 g, and the supernatant was discarded. […]
(§3) cells/mL, and 50 µL volumes were transferred to the microtiter tray wells. Five days after infection, the viability of mock-and HIV-infected cells was examined spectrophotometrically using the MTT assay. The MTT assay is based on the reduction of yellow colored 3-(4,5-dimethylthiazol-2-yl)-2,5-diphenyltetrazolium bromide (MTT) (Acros Organics) by mitochondrial dehydrogenase activity in metabolically active cells to a blue-purple formazan that can be measured spectrophotometrically. The absorbances were read in an eight-channel computer-controlled photometer (Infinite M1000, Tecan), at two wavelengths (540 and 690 nm). All data were calculated using the median absorbance value of three wells. […]
(§4) was defined as the concentration of the test compound that reduced the absorbance (OD540) of the mock-infected control sample by 50%. The concentration achieving 50% protection against the cytopathic effect of the virus in infected cells was defined as the […]

HIV-2 (ROD) = assay: Anti-HIV-2 (ROD) activity in MT-4 cells, MTT assay; assay type: cell-based; conditions: Human immunodeficiency virus 2, MT4, 50% protection against HIV-induced cytotoxicity
Description: as §1, §2, §3, §4

MT-4 cells = assay: Cytotoxicity in mock-infected MT-4 cells, MTT assay; assay type: cell-based; conditions: 50% reduction of viability of mock-infected MT-4 cells
Description: (§5) II. In vitro anti-HIV Assay in MT-4 Cells […]
(§6) performed using the MTT assay as described below. Stock solutions (10 × final concentration) of test compounds were added in 25 µL volumes to two series of […]
(§7) infected cells at the beginning of each experiment. Serial 5-fold dilutions of test […]
(§8) Biomek 3000 robot (Beckman Instruments, Fullerton, CA). Untreated HIV- and mock-infected cell samples were included as controls. HIV stock (50 µL) at 100-300 CCID50 […]
(§9) or mock-infected wells of the microtiter tray. Mock-infected cells were used to evaluate […]
(§10) cytotoxicity. Exponentially growing MT-4 cells were centrifuged for 5 minutes at 220 g, and the supernatant was discarded. […]
(§11) cells/mL, and 50 µL volumes were transferred to the microtiter tray wells. Five days […]
(§12) spectrophotometrically using the MTT assay. The MTT assay is based on the reduction […]
(§13) M1000, Tecan), at two wavelengths (540 and 690 nm). All data were calculated using the median absorbance value of three wells.
(§14) (OD540) of the mock-infected control sample by 50%. The concentration achieving 50%

[1] = as above; assay type: cell-based; conditions: human, 50% reduction of viability of mock-infected MT-4 cells
Description: as §5, §6, §7, §8, §9, §10, §11, §12, §13, §14

in vitro = conditions: both, human, plasma

Row | Compound | EC50 (HIV-1 (IIIB)) [µM] | EC50 (HIV-2 (ROD)) [µM] | CC50 (MT-4 cells) [µM] | other results
1 | COc1ccc(N(C)C(=O)[C@H](Cc2ccccc2)NC(=O)CN2CCN(C(=O)Cc3c(C)[nH]c4ccccc34)CC2=O)cc1 [7a, (S)-N-(4-methoxyphenyl)-N-methyl-2-(2-(4-(2-(2-methyl-1H-indol-3-yl)acetyl)-2-oxopiperazin-1-yl)acetamido)-3-phenylpropanamide] | 14.3 ± 0.76 | 7.74 ± 0.79 | 108 ± 3.26 | 
2 | COc1ccc(N(C)C(=O)[C@H](Cc2ccccc2)NC(=O)CN2CCN(C(=O)Cc3c[nH]c4ccc(OC)cc34)CC2=O)cc1 [7b, (S)-2-(2-(4-(2-(5-methoxy-1H-indol-3-yl)acetyl)-2-oxopiperazin-1-yl)acetamido)-N-(4-methoxyphenyl)-N-methyl-3-phenylpropanamide] | 14.6 ± 0.39 | 16.9 ± 3.58 | 104 ± 3.37 | 
3 | COc1ccc(N(C)C(=O)[C@H](Cc2ccccc2)NC(=O)CN2CCN(C(=O)Cc3c[nH]c4ccc(Br)cc34)CC2=O)cc1 [7c, (S)-2-(2-(4-(2-(5-bromo-1H-indol-3-yl)acetyl)-2-oxopiperazin-1-yl)acetamido)-N-(4-methoxyphenyl)-N-methyl-3-phenylpropanamide] | > 16.4 | > 16.4 | 16.4 ± 3.44 | 
4 | COc1ccc(N(C)C(=O)[C@H](Cc2ccccc2)NC(=O)CN2CCN(C(=O)Cc3c[nH]c4ccccc34)CC2=O)cc1 [7d, (S)-2-(2-(4-(2-(1H-indol-3-yl)acetyl)-2-oxopiperazin-1-yl)acetamido)-N-(4-methoxyphenyl)-N-methyl-3-phenylpropanamide] | 15 ± 0.24 | 4.89 ± 1.39 | 112 ± 3.22 | 
5 | COc1ccc(N(C)C(=O)[C@H](Cc2ccccc2)NC(=O)CN2CCN(C(=O)Cc3c[nH]c4ccc(O)cc34)CC2=O)cc1 [7e, (S)-2-(2-(4-(2-(5-hydroxy-1H-indol-3-yl)acetyl)-2-oxopiperazin-1-yl)acetamido)-N-(4-methoxyphenyl)-N-methyl-3-phenylpropanamide] | 198 ± 9.74 | 186 ± 4.42 |  | CC50 at 5 days [1]: > 209 µM
6 | COc1ccc(N(C)C(=O)[C@H](Cc2ccccc2)NC(=O)CN2CCN(C(=O)Cc3c[nH]c4ccc(F)cc34)CC2=O)cc1 [7f, (S)-2-(2-(4-(2-(5-fluoro-1H-indol-3-yl)acetyl)-2-oxopiperazin-1-yl)acetamido)-N-(4-methoxyphenyl)-N-methyl-3-phenylpropanamide] | 21.8 ± 4.81 | 4.52 ± 0.87 | 90.1 ± 15.7 | 
7 | COc1ccc(N(C)C(=O)[C@H](Cc2ccccc2)NC(=O)CN2CCN(C(=O)c3ccc(NC(C)=O)cc3)CC2=O)cc1 [7g, (S)-2-(2-(4-(4-acetamidobenzoyl)-2-oxopiperazin-1-yl)acetamido)-N-(4-methoxyphenyl)-N-methyl-3-phenylpropanamide] | 203 ± 11 | 184 ± 19.3 |  | CC50 at 5 days [1]: > 213 µM
8 | COc1ccc(N(C)C(=O)[C@H](Cc2ccccc2)NC(=O)CN2CCN(C(=O)c3ccc(NS(C)(=O)=O)cc3)CC2=O)cc1 [7h, (S)-N-(4-methoxyphenyl)-N-methyl-2-(2-(4-(4-(methylsulfonamido)benzoyl)-2-oxopiperazin-1-yl)acetamido)-3-phenylpropanamide] | 192 ± 3.17 | > 201 |  | CC50 at 5 days [1]: > 201 µM
9 | COc1ccc(N(C)C(=O)[C@H](Cc2ccccc2)NC(=O)CN2CCN(C(=O)c3ccc(NC(=O)C4CC4)cc3)CC2=O)cc1 [7i, (S)-N-(4-(4-(2-((1-((4-methoxyphenyl)(methyl)amino)-1-oxo-3-phenylpropan-2-yl)amino)-2-oxoethyl)-3-oxopiperazine-1-carbonyl)phenyl)cyclopropanecarboxamide] | > 168 | 15 ± 2.27 | 168 ± 19.8 | 
10 | COc1ccc(N(C)C(=O)[C@H](Cc2ccccc2)NC(=O)CN2CCN(C(=O)c3ccc(NC(=O)C(F)(F)F)cc3)CC2=O)cc1 [7j, (S)-N-(4-methoxyphenyl)-N-methyl-2-(2-(2-oxo-4-(4-(2,2,2-trifluoroacetamido)benzoyl)piperazin-1-yl)acetamido)-3-phenylpropanamide] | 158 ± 6.77 | 15 ± 4.83 |  | CC50 at 5 days [1]: > 195 µM
11 | COc1ccc(N(C)C(=O)[C@H](Cc2cc(F)cc(F)c2)NC(=O)CN2CCN(C(=O)Cc3c(C)[nH]c4ccccc34)CC2=O)cc1 [F2-7a, (S)-3-(3,5-difluorophenyl)-N-(4-methoxyphenyl)-N-methyl-2-(2-(4-(2-(2-methyl-1H-indol-3-yl)acetyl)-2-oxopiperazin-1-yl)acetamido)propenamide] | 20.8 ± 5.09 | 19.7 ± 6.59 | 76.9 ± 20 | 
12 | COc1ccc(N(C)C(=O)[C@H](Cc2cc(F)cc(F)c2)NC(=O)CN2CCN(C(=O)Cc3c[nH]c4ccc(OC)cc34)CC2=O)cc1 [F2-7b, (S)-3-(3,5-difluorophenyl)-2-(2-(4-(2-(5-methoxy-1H-indol-3-yl)acetyl)-2-oxopiperazin-1-yl)acetamido)-N-(4-methoxyphenyl)-N-methylpropanamide] | > 15.9 | > 15.9 | 15.9 ± 3.83 | 
13 | COc1ccc(N(C)C(=O)[C@H](Cc2cc(F)cc(F)c2)NC(=O)CN2CCN(C(=O)Cc3c[nH]c4ccc(Br)cc34)CC2=O)cc1 [F2-7c, (S)-2-(2-(4-(2-(5-bromo-1H-indol-3-yl)acetyl)-2-oxopiperazin-1-yl)acetamido)-3-(3,5-difluorophenyl)-N-(4-methoxyphenyl)-N-methylpropanamide] | > 3.15 | > 3.15 | 3.15 ± 0.4 | 
14 | COc1ccc(N(C)C(=O)[C@H](Cc2cc(F)cc(F)c2)NC(=O)CN2CCN(C(=O)Cc3c[nH]c4ccccc34)CC2=O)cc1 [F2-7d, (S)-2-(2-(4-(2-(1H-indol-3-yl)acetyl)-2-oxopiperazin-1-yl)acetamido)-3-(3,5-difluorophenyl)-N-(4-methoxyphenyl)-N-methylpropanamide] | 29.4 ± 7.03 | 17.6 ± 9.14 | 57.8 ± 21.8 | 
15 | COc1ccc(N(C)C(=O)[C@H](Cc2cc(F)cc(F)c2)NC(=O)CN2CCN(C(=O)Cc3c[nH]c4ccc(O)cc34)CC2=O)cc1 [F2-7e, (S)-3-(3,5-difluorophenyl)-2-(2-(4-(2-(5-hydroxy-1H-indol-3-yl)acetyl)-2-oxopiperazin-1-yl)acetamido)-N-(4-methoxyphenyl)-N-methylpropanamide] | > 132 | ≥ 49.6 | 132 ± 33 | 
16 | COc1ccc(N(C)C(=O)[C@H](Cc2cc(F)cc(F)c2)NC(=O)CN2CCN(C(=O)c3ccc(NC(C)=O)cc3)CC2=O)cc1 [F2-7g, (S)-2-(2-(4-(4-acetamidobenzoyl)-2-oxopiperazin-1-yl)acetamido)-3-(3,5-difluorophenyl)-N-(4-methoxyphenyl)-N-methylpropanamide] | 177 ± 16.6 | 192 ± 4.57 | 196 ± 6.8 | 
17 | COc1ccc(N(C)C(=O)[C@H](Cc2cc(F)cc(F)c2)NC(=O)CN2CCN(C(=O)c3ccc(NC(=O)C4CC4)cc3)CC2=O)cc1 [F2-7i, (S)-N-(4-(4-(2-((3-(3,5-difluorophenyl)-1-((4-methoxyphenyl)(methyl)amino)-1-oxopropan-2-yl)amino)-2-oxoethyl)-3-oxopiperazine-1-carbonyl)phenyl)cyclopropanecarboxamide] | 14.4 ± 1.31 | 15.1 ± 0.68 | 88.6 ± 11.3 | 
18 | COc1ccc(N(C)C(=O)[C@H](Cc2cc(F)cc(F)c2)NC(=O)CN2CCN(C(=O)c3ccc(NC(=O)C(F)(F)F)cc3)CC2=O)cc1 [F2-7j, (S)-3-(3,5-difluorophenyl)-N-(4-methoxyphenyl)-N-methyl-2-(2-(2-oxo-4-(4-(2,2,2-trifluoroacetamido)benzoyl)piperazin-1-yl)acetamido)propenamide] | 13.7 ± 0.7 | 16.6 ± 6.13 | 150 ± 25.5 | 
19 | Cc1[nH]c2ccccc2c1CC(=O)N[C@@H](Cc1ccccc1)C(=O)N(C)c1ccccc1 [PF74] |  |  |  | half-life at 2 μM (in vitro): > 289 min; remaining at 0 h, 2 μM (in vitro): 100%
20 | CC(C)[N+](C)(CCOC(=O)C1c2ccccc2Oc2ccccc21)C(C)C [Propantheline bromide] |  |  |  | half-life at 2 μM (in vitro): 11.2 min; remaining at 0 h, 2 μM (in vitro): 100%; remaining at 10 min, 2 μM (in vitro): 56.5%; remaining at 0.5 h, 2 μM (in vitro): 19.4%; remaining at 1 h, 2 μM (in vitro): 1.9%; remaining at 2 h, 2 μM (in vitro): 0.1%
